How the values were obtained:
[1] = target: T1, cholesterol ester transfer protein (CETP) (Homo sapiens, UniProt P11597); experiment: CETP inhibitory effect; format: biochemical; conditions: no method or values printed
T1 sequence (P11597 18-493): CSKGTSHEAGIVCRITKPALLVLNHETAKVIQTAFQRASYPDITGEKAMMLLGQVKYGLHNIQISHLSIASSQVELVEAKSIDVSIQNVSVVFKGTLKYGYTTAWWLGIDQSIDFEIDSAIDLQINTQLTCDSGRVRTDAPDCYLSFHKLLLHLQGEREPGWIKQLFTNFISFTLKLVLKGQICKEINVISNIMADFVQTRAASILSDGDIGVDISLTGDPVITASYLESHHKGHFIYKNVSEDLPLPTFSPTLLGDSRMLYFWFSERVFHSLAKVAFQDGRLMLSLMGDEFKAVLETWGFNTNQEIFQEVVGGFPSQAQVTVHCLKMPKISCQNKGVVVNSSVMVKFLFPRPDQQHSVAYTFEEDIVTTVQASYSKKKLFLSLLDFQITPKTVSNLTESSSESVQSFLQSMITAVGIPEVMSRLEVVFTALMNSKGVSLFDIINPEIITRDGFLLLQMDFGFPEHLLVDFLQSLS

[2] = tested on: SCD-1 mRNA; experiment: Expression level of SCD-1 mRNA in HepG2 cells by real-time quantitative RT-PCR; format: cell-based, human; conditions: 0.1, 1, 10 mM DMSO solutions added at 1 to 1000, corrected by β-Actin mRNA, FIG. 3
Protocol: More specifically, the HepG2 cells were seeded on a 24-well plate at a concentration of 2×10^5 cells/well, and cultured overnight. […] The mixture was cultured for 8 hours in a CO2 incubator at 37° C., and then 500 μL of ISOGEN (Nippon Gene Co., Ltd., catalogue No. 31-02501) was added, and the total RNA was extracted. From the extracted total RNA, cDNA was synthesized using High Capacity cDNA Reverse Transcription kit (Applied Biosystems, catalogue No. 4368813). The expression level of human SCD-1 was measured using a primer 5′-[sequence]-3′ (SEQ ID NO. 6), an antisense primer 5′-[sequence]-3′ (SEQ ID NO. 7), which are specific to human SCD-1, and Fast SYBR Green master mix (Applied Biosystems, catalogue No. 4385614). The measurement instrument was 7900HT Fast Realtime PCR system.
The measurement value was corrected by the expression level of β-Actin mRNA.

[3] = tested on: SREBP1c mRNA; experiment: Expression level of SREBP1c mRNA in HepG2 cells by real-time quantitative RT-PCR; format: cell-based, human; conditions: 0.1, 1, 10 mM DMSO solutions added at 1 to 1000, corrected by β-Actin mRNA, FIG. 2
Protocol: The test compound 2 was added to the HepG2 cells of human liver cancer cell line, cultured for 24 hours, and then the expression level of SREBP1c mRNA was measured by real-time quantitative RT-PCR. More specifically, the HepG2 cells were seeded on a 24-well plate at a concentration of 2×10^5 cells/well, and cultured overnight. The test compound 2 was dissolved in dimethyl sulf oxide (DMSO) at concentrations of 0.1 mM, 1 mM, and 10 mM, and added to the culture solution at the rate of 1 to 1000. The mixture was cultured for 8 hours in a CO2 incubator at 37° C., and then 500 μL of ISOGEN (Nippon Gene Co., Ltd., catalogue No. 31-02501) was added, and the total RNA was extracted. […] The expression level of human SREBP1c mRNA was measured using a TaqMan probe 5′-[sequence]-3′ (SEQ ID NO. 3), a sense primer: 5′-[sequence]-3′ (SEQ ID NO. 4), and an antisense primer 5′-[sequence]-3′ (SEQ ID NO. 5), which are specific to human SREBP1c, and TaqMan Fast Universal PCR Master Mix (Applied Biosystems, catalogue No. 4367846). […]
The measurement value was corrected by the expression level of β-Actin mRNA. The expression level of SREBP1c mRNA in the cells mixed with DMSO alone was set at 1, and the expression level of SREBP1c mRNA in the cells mixed with the test compound 2 was calculated as relative value.

SMILES | CETP inhibitory effect (test compound 2 compared with Anacetrapib) [1] | decrease of the expression level of SCD-1 mRNA (relative value, DMSO alone = 1) [2] | decrease of the expression level of SREBP1c mRNA (relative value, DMSO alone = 1) [3]
COc1cc(F)c(C(C)C)cc1-c1ccc(C(F)(F)F)cc1CN1C(=O)O[C@H](c2cc(C(F)(F)F)cc(C(F)(F)F)c2)[C@@H]1C [Anacetrapib, (4S,5R) -5-[3,5-bis(trifluoromethyl)phenyl]-3-({2-[4-fluoro-2-methoxy-5-(propane-2-yl)phenyl]-5-(trifluoromethyl)phenyl}methyl)-4-methyl-1,3-oxazolidine-2-one, reference compound] | equal | – | –
CCN(C[C@H]1CC[C@H](CC(=O)O)CC1)c1ccc(C(F)(F)F)cc1CN(c1ncc(OCCS(C)(=O)=O)cn1)[C@@H](C)c1cc(C(F)(F)F)cc(C(F)(F)F)c1 [compound 2] | equal | evidently stronger than that of Anacetrapib | evidently stronger than that of Anacetrapib
